Literature values, collected in US20230398047A1, “COMPOSITION COMPRISING SKIN CARE ACTIVE INGREDIENT AND TWO POLYGLYCERYL FATTY ACID ESTERS” (L'OREAL, priority 2021, published 2023).

Conditions: octan-1-ol/water; values said to be known or calculated

Row | SMILES | logP
1 | CCOC1=C(O)C(=O)O[C@@H]1[C@@H](O)CO [3-O-ETHYL ASCORBIC ACID, 3-O-ethyl ascorbic acid] | 3-O-ETHYL ASCORBIC ACID (LogP = −1.3)
2 | O=C1O[C@H]([C@@H](O)CO)C(O)=C1O[C@H]1O[C@H](CO)[C@@H](O)[C@H](O)[C@H]1O [ASCORBYL GLUCOSIDE, ascorbyl glucoside] | ASCORBYL GLUCOSIDE (logP = −3.4)
3 | CC(O)C[C@H]1OC[C@@H](O)[C@H](O)[C@H]1O (stereo partly drawn) [HYDROXYPROPYL TETRAHYDROPYRANTRIOL, C-beta-D-xylopyranoside-2-hydroxpropane] | HYDROXYPROPYL TETRAHYDROPYRANTRIOL (logP = −1.5)
4 | NC(=O)c1cccnc1 [NIACINAMIDE, niacinamide, reference compound] | NIACINAMIDE (LogP = −0.37)
5 | CC(c1ccccc1)c1ccc(O)cc1O (centres unmarked) [PHENYLETHYL RESORCINOL, 4-(1-phenylethyl)-1,3-benzenediol] | PHENYLETHYL RESORCINOL(logP = 3.07)
